This is an account of results in ChEMBL document CHEMBL5120835, “Structure-activity relationships of 1,4-bis(arylsulfonamido)-benzene or naphthalene-N,N'-diacetic acids with varying C2-substituents as inhibitors of Keap1-Nrf2 protein-protein interaction” (Eur J Med Chem, 2022).

Active and inactive are the calls of the source. No cut-off for these calls is given here.

The target of series [1] is T1, Keap1/Nrf2 (Homo sapiens, UniProt Q14145). Kind of series: Inhibition of recombinant human Keap1 Kelch domain (321 to 609 residues) expressed in Escherichia coli BL21 (DE3)pLysS cells/Nrf2 (unknown origin) protein-protein interaction using FITC-LDEETGEFL-NH2 as fluorescent substrate preincubated with compound for 30 mins followed by substrate addition and measured after 1 hr by fluorescence polarization assay relative to control.
T1 sequence (Q16236 whole entry, the tested form may be a part): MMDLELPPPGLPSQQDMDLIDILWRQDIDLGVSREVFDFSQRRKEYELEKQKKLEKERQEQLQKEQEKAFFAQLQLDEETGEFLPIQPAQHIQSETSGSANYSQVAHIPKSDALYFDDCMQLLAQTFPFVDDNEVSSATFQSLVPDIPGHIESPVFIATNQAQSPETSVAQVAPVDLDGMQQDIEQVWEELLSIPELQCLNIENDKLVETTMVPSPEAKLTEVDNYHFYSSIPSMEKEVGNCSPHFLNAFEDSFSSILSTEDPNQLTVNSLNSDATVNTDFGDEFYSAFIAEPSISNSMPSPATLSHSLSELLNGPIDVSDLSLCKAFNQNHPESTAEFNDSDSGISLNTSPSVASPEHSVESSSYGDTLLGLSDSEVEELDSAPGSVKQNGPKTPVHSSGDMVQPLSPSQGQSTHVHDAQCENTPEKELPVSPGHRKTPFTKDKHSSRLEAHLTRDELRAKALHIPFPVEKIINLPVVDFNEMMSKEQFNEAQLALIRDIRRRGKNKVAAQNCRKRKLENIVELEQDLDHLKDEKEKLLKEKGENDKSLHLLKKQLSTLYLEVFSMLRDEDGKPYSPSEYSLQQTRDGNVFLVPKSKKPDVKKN
T1 sequence (Q14145 whole entry, the tested form may be a part): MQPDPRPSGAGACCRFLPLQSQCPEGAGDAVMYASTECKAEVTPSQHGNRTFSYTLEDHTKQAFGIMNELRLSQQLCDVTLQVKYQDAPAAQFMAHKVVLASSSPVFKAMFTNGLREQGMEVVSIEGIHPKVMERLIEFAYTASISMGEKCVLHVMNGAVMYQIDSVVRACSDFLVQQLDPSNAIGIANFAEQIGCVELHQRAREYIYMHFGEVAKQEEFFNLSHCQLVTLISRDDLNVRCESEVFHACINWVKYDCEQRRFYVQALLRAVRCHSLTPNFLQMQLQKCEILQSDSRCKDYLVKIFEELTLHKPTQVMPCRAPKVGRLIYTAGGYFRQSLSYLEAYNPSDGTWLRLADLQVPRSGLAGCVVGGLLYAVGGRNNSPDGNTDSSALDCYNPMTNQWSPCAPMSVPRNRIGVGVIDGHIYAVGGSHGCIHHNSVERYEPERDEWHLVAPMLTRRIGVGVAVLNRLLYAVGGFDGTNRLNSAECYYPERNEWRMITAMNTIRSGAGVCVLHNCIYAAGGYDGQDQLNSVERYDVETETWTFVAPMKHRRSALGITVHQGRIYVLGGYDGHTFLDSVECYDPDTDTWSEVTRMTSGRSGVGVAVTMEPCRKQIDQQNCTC

Series [2] addresses T1, Keap1/Nrf2. Kind of series: Inhibition of His-tagged Keap1 kelch domain/Nrf2 (unknown origin) protein-protein interaction using FITC-LDEETGEFL-NH2 peptide as substrate preincubated for 30 mins followed by substrate addition and measured after 1 hr by TR-FRET assay. For orientation: TR-FRET usually uses a lanthanide donor and a delayed reading to cut background.
Series [3] can be described thus: Lipophilicity, logD of the compound at pH 7.4. It is filed as physicochemical. Conditions: buffer.
Series [4] is described as follows: Lipophilicity, logD of the compound at pH 6.5. The following applies: buffer. It counts as physicochemical.
In series [5] the test system is NCM460D. Kind of series: Upregulation of GSTM3 mRNA expression in human NCM460D cells at 1 to 100 uM measured after 24 hrs by qRT-PCR analysis. It counts as functional, cell-based. Conditions: dose 1-100 µM. On the technique in general: Real-time PCR tracks product formation cycle by cycle.
Series [6] deals with NCM460D. The experiment in a line: Upregulation of HMOX1 mRNA expression in human NCM460D cells at 1 to 100 uM measured after 24 hrs by qRT-PCR analysis. The following applies: dose 1-100 µM. It counts as functional, cell-based.
Series [7] has as its system NCM460D. The experiment in a line: Upregulation of NQO1 mRNA expression in human NCM460D cells at 1 to 100 uM measured after 24 hrs by qRT-PCR analysis. It is filed as functional, cell-based. Conditions: dose 1-100 µM.
The nature of series [8]: Upregulation of NQO1 mRNA expression in human NCM460D cells assessed as fold change in gene expression at 100 uM measured after 24 hrs by qRT-PCR analysis relative to control. It counts as functional.

For the compound `O=C(O)CN(c1ccc(N(CC(=O)O)S(=O)(=O)c2ccc(F)cc2)c(OCc2ccccc2)c1)S(=O)(=O)c1ccc(F)cc1`, the IC50 at Keap1/Nrf2 [1] was 2410 nM.

For `COc1ccc(S(=O)(=O)N(CC(=O)O)c2ccc(N(CC(=O)O)S(=O)(=O)c3ccc(OC)cc3)c(-c3ccccc3)c2)cc1`, on Keap1/Nrf2 [1], the IC50 worked out at 3470 nM.

In the case of `COc1ccc(S(=O)(=O)N(CC(=O)O)c2ccc(N(CC(=O)O)S(=O)(=O)c3ccc(OC)cc3)c(Oc3ccc(-c4ccccc4)cc3)c2)cc1`, on Keap1/Nrf2 [1], the IC50 was determined as 1190 nM.

As for `COc1ccc(S(=O)(=O)N(CC(=O)O)c2ccc(N(CC(=O)O)S(=O)(=O)c3ccc(OC)cc3)c(OCc3cccnc3)c2)cc1`, the IC50 at Keap1/Nrf2 [1] worked out at 760 nM.

As to `COc1ccc(COc2cc(N(CC(=O)O)S(=O)(=O)c3ccc(OC)cc3)ccc2N(CC(=O)O)S(=O)(=O)c2ccc(OC)cc2)cc1`, on Keap1/Nrf2 [1], the IC50 came to 770 nM.

Take `COc1ccc(S(=O)(=O)N(CC(=O)O)c2ccc(N(CC(=O)O)S(=O)(=O)c3ccc(OC)cc3)c(OCc3ccc(C)cc3)c2)cc1`: the IC50 on Keap1/Nrf2 [1] amounted to 620 nM.

On to `O=C(O)CN(c1ccc(N(CC(=O)O)S(=O)(=O)c2ccc(Br)cc2)c(OCc2ccccc2)c1)S(=O)(=O)c1ccc(Br)cc1`, for which the IC50 on Keap1/Nrf2 [1] stood at 590 nM.

For the compound `COc1ccc(S(=O)(=O)N(CC(=O)O)c2ccc(N(CC(=O)O)S(=O)(=O)c3ccc(OC)cc3)c(OCCc3ccccc3)c2)cc1`, at Keap1/Nrf2 [1], the IC50 was found to be 1020 nM.

As for `Cc1ccc(S(=O)(=O)N(CC(=O)O)c2ccc(N(CC(=O)O)S(=O)(=O)c3ccc(C)cc3)c(OCc3ccc4ccccc4c3)c2)cc1`, on Keap1/Nrf2 [1], the IC50 was determined as 380 nM.

For the compound `Cc1cc(C)c(S(=O)(=O)N(CC(=O)O)c2ccc(N(CC(=O)O)S(=O)(=O)c3c(C)cc(C)cc3C)c(OCc3ccc(F)cc3)c2)c(C)c1`, the IC50 on Keap1/Nrf2 [1] was 3730 nM.

For the compound `Cc1ccc(S(=O)(=O)N(CC(=O)O)c2ccc(N(CC(=O)O)S(=O)(=O)c3ccc(C)cc3)c(OCc3ccc(-c4ccccc4)cc3)c2)cc1`, the IC50 at Keap1/Nrf2 [1] stood at 440 nM.

In the case of `Cc1ccc(S(=O)(=O)N(c2ccc(N([C@@H](C)C(=O)O)S(=O)(=O)c3ccc(C)cc3)c(OCc3ccc(F)cc3)c2)[C@@H](C)C(=O)O)cc1`, the IC50 on Keap1/Nrf2 [1] came to 1270 nM.

In the case of `COc1ccc(S(=O)(=O)N(CC(=O)O)c2ccc(N(CC(=O)O)S(=O)(=O)c3ccc(OC)cc3)c(COc3ccccc3)c2)cc1`, the IC50 on Keap1/Nrf2 [1] was found to be 2620 nM.

Take `COc1ccc(S(=O)(=O)N(CC(=O)O)c2ccc(N(CC(=O)O)S(=O)(=O)c3ccc(OC)cc3)c(Oc3ccc4ccccc4c3)c2)cc1`: at Keap1/Nrf2 [1], the IC50 was 890 nM.

For `COc1ccc(S(=O)(=O)N(CC(=O)O)c2ccc(N(CC(=O)O)S(=O)(=O)c3ccc(OC)cc3)c(OCc3ccc(Oc4ccccc4)cc3)c2)cc1`, the IC50 on Keap1/Nrf2 [1] was 830 nM.

As to `COc1ccc(S(=O)(=O)N(CC(=O)O)c2ccc(N(CC(=O)O)S(=O)(=O)c3ccc(OC)cc3)c(OCCCc3ccccc3)c2)cc1`, the IC50 at Keap1/Nrf2 [1] came to 950 nM.

`Cc1cccc(S(=O)(=O)N(CC(=O)O)c2ccc(N(CC(=O)O)S(=O)(=O)c3cccc(C)c3)c(OCc3ccccc3)c2)c1`: the IC50 at Keap1/Nrf2 [1] worked out at 1000 nM.

Regarding `Cc1ccc(S(=O)(=O)N(CC(=O)O)c2cc(OCc3ccc(F)cc3)c(N(CC(=O)O)S(=O)(=O)c3ccc(C)cc3)c3ccccc23)cc1`, the values for the IC50 on Keap1/Nrf2 [1] and at Keap1/Nrf2 [2] were 65 nM and 14.2 nM, respectively. Besides, the logD in series [3] (read-out: logD) amounted to 0.33; in series [4], 1.94. The result with NCM460D [5], in the series with NCM460D [6] and in the series on NCM460D [7] was Active. In addition, in series [8], the “fold change (FC)” value is recorded as 15.

As for `Cc1ccc(S(=O)(=O)N(CC(=O)O)c2ccc(N(CC(=O)O)S(=O)(=O)c3ccc(C)cc3)c(OCc3ccc(F)cc3)c2)cc1`, the IC50 at Keap1/Nrf2 [1] came out at 450 nM.

For `COc1ccc(S(=O)(=O)N(CC(=O)O)c2ccc(N(CC(=O)O)S(=O)(=O)c3ccc(OC)cc3)c(OCc3ccc4ccccc4c3)c2)cc1`, on Keap1/Nrf2 [1], the IC50 worked out at 480 nM.

On to `Cc1ccc(S(=O)(=O)N(CC(=O)O)c2ccc(N(CC(=O)O)S(=O)(=O)c3ccc(C)cc3)c(OCc3ccccc3)c2)cc1`, for which the IC50 at Keap1/Nrf2 [1] turned out to be 450 nM.

Consider `COc1ccc(S(=O)(=O)N(CC(=O)O)c2ccc(N(CC(=O)O)S(=O)(=O)c3ccc(OC)cc3)c(OCc3ccc(F)cc3)c2)cc1`, for which, at Keap1/Nrf2 [1], the IC50 was 910 nM.

As for `COc1ccc(S(=O)(=O)N(CC(=O)O)c2ccc(N(CC(=O)O)S(=O)(=O)c3ccc(OC)cc3)c(OCc3cccc4ccccc34)c2)cc1`, the IC50 on Keap1/Nrf2 [1] was 790 nM.

Turning to `Cc1ccc(S(=O)(=O)N(Cc2nnn[nH]2)c2ccc(N(Cc3nnn[nH]3)S(=O)(=O)c3ccc(C)cc3)c(OCc3ccc(F)cc3)c2)cc1`, the IC50 on Keap1/Nrf2 [1] was found to be 3920 nM.

For the compound `O=C(O)CN(c1ccc(N(CC(=O)O)S(=O)(=O)c2ccc(C(F)(F)F)cc2)c(OCc2ccccc2)c1)S(=O)(=O)c1ccc(C(F)(F)F)cc1`, the IC50 on Keap1/Nrf2 [1] stood at 1760 nM.

As for `COc1ccc(S(=O)(=O)N(CC(=O)O)c2ccc(N(CC(=O)O)S(=O)(=O)c3ccc(OC)cc3)c3ccccc23)cc1`, the logD in series [3] is -2.93; in series [4], -1.38.

In the case of `COc1ccc(S(=O)(=O)N(CC(=O)O)c2ccc(N(CC(=O)O)S(=O)(=O)c3ccc(OC)cc3)c(N(C)Cc3ccccc3)c2)cc1`, at Keap1/Nrf2 [1], the IC50 is 6170 nM.

On to `O=C(O)CN(c1ccc(N(CC(=O)O)S(=O)(=O)c2ccc(-c3ccccc3)cc2)c(OCc2ccccc2)c1)S(=O)(=O)c1ccc(-c2ccccc2)cc1`, for which the IC50 at Keap1/Nrf2 [1] was determined as 750 nM.

As to `COc1ccc(S(=O)(=O)N(CC(=O)O)c2ccc(N(CC(=O)O)S(=O)(=O)c3ccc(OC)cc3)c(OCc3ccc(-c4ccccc4)cc3)c2)cc1`, the IC50 at Keap1/Nrf2 [1] amounted to 390 nM.

Broadly, the IC50 is the point on the concentration scale where inhibition reaches its midpoint. As a reminder, the logD is lipophilicity at a set pH, counting ionised and neutral species.
